According to publication PMC12250754, “Phytochemical Screening and Biological Activities of Lippia multiflora Moldenke” (Molecules, 2025):
Values after ≈ are worked out from the molar mass of the structure shown. Like-named read-outs stand apart in the source and are kept apart here. Marks after values point to notes of the source that are not given here.

Tests used:
[1] = DPPH free radical scavenging assay; conditions: mean ± SD, n = 3
Experimental: The DPPH free radical scavenging ability was evaluated for the crude extracts using the DPPH (2,2-diphenyl-1-picrylhydrazyl) assay using a modified spectrophotometric method of Motamed and Naghibi (2010) [81]. The crude extracts (100 µL) were added to a 96-well plate containing distilled water (100 µL). After serial dilution, a 0.3 M DPPH/methanol (200 µL) solution was added to the mixture. The mixture was left at room temperature for 30 min, and the absorbance was measured using a SoftMax^R Pro 6 (version 6.3) microplate reader at 517 nm. All the crude extracts were tested in triplicate.
The percentage of radical scavenging was calculated by the following formula:% Free RSA = [(ADPPH − Asample)/(ADPPH)] × 100(2) where ADPPH is the absorbance of the DPPH solution and Asample is the absorbance of the samples and DPPH. The ability of the crude extracts to inhibit 50% of the free radical (IC50) was extrapolated from a graph of % RSA against concentration.

[2] = Reducing power assay; conditions: mean ± SD, n = 3
Experimental: The reducing capacity of the crude extracts was estimated as described by Pereira et al. (2013). Fifty microliters of the crude extracts were mixed with fifty microliters of sodium phosphate buffer (0.2 M, pH 6.6). After serial dilution, a potassium hexacyanoferrate (1% aqueous, 50 μL) solution was added. A trichloroacetic acid (10%, 50 μL) solution was added after 20 min of incubation at 50 °C. Eighty microliters of each mixture was moved to another 96-well plate containing eighty microliters of distilled water. […] All the crude extracts were tested in triplicate.

[3] = cited from earlier work
[4] = cited from earlier work; remark: listed apart in the source
[5] = set-up: method as in earlier work; conditions: ref 65 (Gülçin et al. 2012); cited from earlier work
[6] = set-up: method as in earlier work; conditions: ref 65 (Gülçin et al. 2012); cited from earlier work; remark: listed apart in the source
[7] = test system: Vero cells; assay: MTT cytotoxicity assay; format: cell-based, African green monkey; conditions: Chlorocebus sabaeus, 48 h, Vero monkey kidney cells, two days incubation, mean ± SD, n = 3
Experimental: African green monkey (Vero) kidney cells (ATCC CCL-81, Cellonex, Johannesburg, South Africa) were cultured in Minimal Essential Medium (MEM), which consisted of Earle’s Balanced Salt Solution (EBSS) and L-Glutamine (2.0 mM) (Cytiva Hyclone, Marlborough, MA, USA) and was supplemented with 10% fetal bovine serum (FBS) and 1% penicillin/streptomycin (P/S, Biowest, Nuaille, France). These cells were incubated for 48 h at 37 °C in a 95% air and 5% CO2 humidified incubator (Nϋve, Ankara, Turkey). The cells were trypsinized with 0.25% trypsin/EDTA (Cytiva Hyclone, Marlborough, MA, USA) and split at a ratio of 1:5 for further passaging at 70 to 80% confluency. […]
The 3-(4,5-dimethylthiazol-2-yl)-2,5-diphenyltetrazolium bromide (MTT) cytotoxicity assay was determined as described by Mariri et al. (2024). The cytotoxic effects of the crude extracts of Lippia multiflora were evaluated against Vero cells. […] The mixture was kept in the dark for 15 min, and the absorbance was measured spectrophotometrically at 570 nm on a SpectraMax iD3 multi-mode microplate reader (Winooski, VT, USA). The cell viability was calculated as the percentage (%) of negative control (0.5% dimethyl sulfoxide; see Equation (3)).
The extracts were calculated using the following equation:(3) Cell viability%=Abssample−AbsBlank/Absnegative control−AbsBlank×100 where Abs is the absorbance.

For `O=C1O[C@H]([C@@H](O)CO)C(O)=C1O` [Ascorbic acid, ascorbic acid], the “DPPH IC50” value [1] was 44.308 ± 9.813 ^b µg/mL and the “Reducing Power IC0.5” value [2] was 0.355 ± 0.393 ^a µg/mL.
For `COc1ccc(-c2coc3cc(O[C@@H]4O[C@H](CO)[C@@H](O)[C@H](O)[C@H]4O)ccc3c2=O)cc1` [Compound 8, Formononetin-7-O-glucoside (Ononin)], the “DPPH radical IC50” value ([3]; ref 62 (Zgórka et al. 2022)) is listed as 30.18 ± 0.37 µg/mL and the “ABTS radical IC50” value ([4]; ref 62 (Zgórka et al. 2022)) is listed as 30.30 ± 0.18 µg/mL.
For `C[C@@H]1O[C@@H](Oc2c(-c3ccc(O)c(O)c3)oc3cc(O)cc(O)c3c2=O)[C@H](O)[C@H](O)[C@H]1O` [Compound 10, Quercitrin], the “DPPH radical scavenging IC50” value ([3]; isolated from ethyl acetate stem of Lippia graveolens, ref 70 (González Güereca et al. 2007)) is given as 11.24 ± 1.10 µg/mL.
For `CCCCC[C@H](O)CC(=O)CCc1ccc(O)c(OC)c1` [Compound 11, 6-Gingerol], the “DPPH radical scavenging EC50” value ([3]; isolated from rhizome of Zingiber officinale, ref 67 (Wang et al. 2003)) is listed as 23.07 µg/mL.
In the case of `Oc1cc(O)c2c(c1)O[C@H](c1cc(O)c(O)c(O)c1)[C@H](O)C2` [Compound 14, (−)-Epigallocatechin], the “DPPH radical scavenging IC50” value ([3]; from Japanese knotweed rhizome bark extract, ref 64 (Jug et al. 2021)) is given as 1.5 µg/mL^−1.
In the case of `COC(=O)C1=COC(C)C2CN3CCC4(C(=O)Nc5c4ccc(OC)c5OC)C3CC12` (stereo not drawn) [Compound 15, Isomajdine], the “ABTS scavenging EC50” value ([4]; ref 65 (Gülçin et al. 2012)) is given as 34.11 µg/mL, the “DMPD scavenging EC50” value [5] is given as 32.09 µg/mL and the “Ferrous ion (Fe^2+) chelating activity EC50” value [6] is given as 10.05 µg/mL.
Compound `COc1cccc2c1C(=O)c1c(O)c3c(c(O)c1C2=O)C[C@@](O)(C(=O)CO)C[C@@H]3O[C@H]1C[C@H](N)[C@H](O)[C@H](C)O1` [Doxorubicin] has an IC50 [7] of 4.97 ± 0.83 µg/mL (≈ 9.14 µM).
For `O=C(O)c1cc(O)c(O)c(O)c1` [Gallic acid, gallic acid], the “DPPH IC50” value [1] was 37.340 ± 17.529 ^ab µg/mL and the “Reducing Power IC0.5” value [2] was 8.210 ± 11.257 ^a µg/mL.
In the case of `O=c1c(O)c(-c2ccc(O)c(O)c2)oc2cc(O)cc(O)c12` [Quercetin, quercetin], the “DPPH IC50” value [1] is reported as 37.361 ± 21.356 ^b µg/mL and the “Reducing Power IC0.5” value [2] is reported as 3.760 ± 2.979 ^a µg/mL.
